From patent US7192746B2, “α-Isomaltosyltransferase, process for producing the same and use thereof” (Kabushiki Kaisha Hayashibara Seibutsu Kagaku Kenkyujo, priority 2000, dated 2007) come the findings set out here.

Common to all, as to test: Specificity to transferring acceptor
Holding throughout (type): biochemical
Set-up in all cases: key: −: no saccharide transferred product was formed; ±: a saccharide-transferred product formed in an amount of less than one percent to the total sugars; +: a saccharide-transferred product was formed in an amount of over one percent but below 10% to the total sugars; ++: a saccharide-transferred product was formed in an amount of over 10% to the total sugars

In assay [1] the test system is α-isomaltosyl-transferring enzyme from Bacillus globisporus C9. The conditions noted are these: panose as saccharide donor, 10 units/g substrate, 3.2% (w/v), 30° C., pH 6.0, 24 hours. The method, then:
(§1) Saccharides were tested as follows to examine whether they can be used as transferring acceptors for the α-isomaltosyl-transferring enzyme of the present invention. A solution of D-glucose, D-xylose, L-xylose, D-galactose, D-fructose, D-mannose, D-arabinose, D-fucose, L-sorbose, L-rhamnose, methyl-α-glucoside (or methyl-α-glucopyranoside), methyl-β-glucoside (or methyl-β-glucopyranoside), N-acetyl-D-glucosamine, D-ribose, L-ribose, D-psicose, sorbitol, xylitol, mannitol, arabitol, ribitol, erythritol, maltose, maltotriose, maltotetraose, maltopentaose, isomaltose, isomaltotriose, α,α-trehalose, α,β-trehalose, kojibiose, nigerose, cellobiose, gentibiose, isopanose, maltitol, maltotriitol, lactose, sucrose, erlose, isomaltosylglucoside, α-cyclodextrin, β-cyclodextrin, γ-cyclodextrin, or L-ascorbic acid was prepared. To each solution was added panose as a saccharide donor to give an equal concentration, admixed with 10 units/g substrate of a purified specimen of either α-isomaltosyl-transferring enzyme from Bacillus globisporus C9 obtained by the method in Experiment 4, Bacillus globisporus C11 obtained by the method in Experiment 7, Bacillus globisporus N75 obtained by the method in Experiment 11, or Arthrobacter ramosus S1 obtained by the method in Experiment 15, or a partially purified specimen of α-isomaltosyl-transferring enzyme from Arthrobacter globiformis A19 obtained by the method in Experiment 18, followed by adjusting the saccharide concentration to 3.2% (w/v). The mixtures thus obtained were enzymatically reacted at 30° C. and Ph 6.0 for 24 hours. The saccharide composition of the resulting reaction mixtures were analyzed on gas chromatography (abbreviated as “GLC” hereinafter) for monosaccharides and disaccharides as testing saccharides, and on HPLC for tri- or higher-saccharides as testing saccharides to confirm whether these saccharides can be used as transferring acceptors for the above enzymes with an index of the positive or negative formation of a saccharide transferred product. In performing GLC, the following apparatuses and conditions were used: GLC apparatus, “GC-16A” commercialized by Shimadzu Corporation, Tokyo, Japan; column, a stainless-steel column, 3 mm in diameter and 2 m in length, packed with 2% “SILICONE OV-17/[…]”, commercialized by GL Sciences Inc., Tokyo, Japan; carrier gas, nitrogen gas at a flow rate of 40 ml/min under temperature conditions of increasing from 160° C. to 320° C. at an increasing temperature rate of 7.5° C./min; and detection, a hydrogen flame ionization detector. In the case of HPLC analysis, the apparatuses and conditions used were: HPLC apparatus, “CCPD” commercialized by Tosoh Corporation, Tokyo, Japan; column, “ODS-AQ-303” commercialized by YMC Co., Ltd., Tokyo, Japan; eluent, water at a flow rate of 0.5 ml/min; and detection, a differential refractometer.

Assay [2] relates to α-isomaltosyl-transferring enzyme from Bacillus globisporus C11. The note with it: panose as saccharide donor, 10 units/g substrate, 3.2% (w/v), 30° C., pH 6.0, 24 hours. The method, then: as §1
Assay [3] concerns α-isomaltosyl-transferring enzyme from Arthrobacter globiformis A19. The conditions noted are these: partially purified enzyme, panose as saccharide donor, 10 units/g substrate, 3.2% (w/v), 30° C., pH 6.0, 24 hours. The method, then: as §1
In assay [4] the test system is α-isomaltosyl-transferring enzyme from Arthrobacter ramosus S1. The conditions noted are these: panose as saccharide donor, 10 units/g substrate, 3.2% (w/v), 30° C., pH 6.0, 24 hours. The method, then: as §1
Assay [5] relates to α-isomaltosyl-transferring enzyme from Bacillus globisporus N75. The note with it: panose as saccharide donor, 10 units/g substrate, 3.2% (w/v), 30° C., pH 6.0, 24 hours. As to the method: as §1

Structures are written as SMILES.

Turning to `OC[C@@H](O)C(O)[C@H](O)CO` [Arabitol, arabitol], in assay [1], the “Product of transferring reaction, Enzyme of Strain C9” value (“Product … of Strain C9” below) is on record as “−”. The “Product of transferring reaction, Enzyme of Strain C11” value (“Product … of Strain C11” below) in assay [2] was “−”. In assay [3], the “Product of transferring reaction, Enzyme of Stain A19” value (“Product … of Stain A19” for short) is “−”. The “Product of transferring reaction, Enzyme of Strain S1” value (“Product … of Strain S1” for short) in assay [4] is “± (a saccharide-transferred product formed in an amount of less than one percent to the total sugars)”. Besides, the “Product of transferring reaction, Enzyme of Strain N75” value (“Product … of Strain N75” for short) in assay [5] is listed as “−”.

With `O=C[C@@H](O)[C@H](O)[C@H](O)CO` [D-Arabinose, D-arabinose], the “Product … of Strain C9” value in assay [1] is “± (a saccharide-transferred product formed in an amount of less than one percent to the total sugars)”. Besides, the “Product … of Strain C11” value in assay [2] is “± (a saccharide-transferred product formed in an amount of less than one percent to the total sugars)”. For the same compound, the “Product … of Stain A19” value in assay [3] was “± (a saccharide-transferred product formed in an amount of less than one percent to the total sugars)”. The “Product … of Strain S1” value in assay [4] was “+ (a saccharide-transferred product was formed in an amount of over one percent but below 10% to the total sugars)”. In assay [5], the “Product … of Strain N75” value is listed as “± (a saccharide-transferred product formed in an amount of less than one percent to the total sugars)”.

Consider `O=C(CO)[C@@H](O)[C@H](O)[C@H](O)CO` [D-Fructose, D-fructose], for which, in assay [1], the “Product … of Strain C9” value is given as “−”. Moreover, the “Product … of Strain C11” value in assay [2] is recorded as “−”. Besides, in assay [3], the “Product … of Stain A19” value was “± (a saccharide-transferred product formed in an amount of less than one percent to the total sugars)”. Also, in assay [4], the “Product … of Strain S1” value was “+ (a saccharide-transferred product was formed in an amount of over one percent but below 10% to the total sugars)”. Further, the “Product … of Strain N75” value in assay [5] was “−”.

On to `C[C@@H](O)[C@H](O)[C@H](O)[C@@H](O)C=O` [D-Fucose, D-fucose], for which the “Product … of Strain C9” value in assay [1] is on record as “± (a saccharide-transferred product formed in an amount of less than one percent to the total sugars)”. The “Product … of Strain C11” value in assay [2] was “± (a saccharide-transferred product formed in an amount of less than one percent to the total sugars)”. Further, the “Product … of Stain A19” value in assay [3] is “± (a saccharide-transferred product formed in an amount of less than one percent to the total sugars)”. Besides, in assay [4], the “Product … of Strain S1” value is reported as “+ (a saccharide-transferred product was formed in an amount of over one percent but below 10% to the total sugars)”. Also, the “Product … of Strain N75” value in assay [5] is “± (a saccharide-transferred product formed in an amount of less than one percent to the total sugars)”.

As to `O=C[C@H](O)[C@@H](O)[C@@H](O)[C@H](O)CO` [D-Galactose, D-galactose], the “Product … of Strain C9” value in assay [1] is given as “−”. Besides, in assay [2], the “Product … of Strain C11” value is “−”. Further, the “Product … of Stain A19” value in assay [3] is reported as “± (a saccharide-transferred product formed in an amount of less than one percent to the total sugars)”. Also, in assay [4], the “Product … of Strain S1” value is listed as “+ (a saccharide-transferred product was formed in an amount of over one percent but below 10% to the total sugars)”. For the same compound, the “Product … of Strain N75” value in assay [5] was “−”.

Turning to `O=C[C@H](O)[C@@H](O)[C@H](O)[C@H](O)CO` [D-Glucose, D-glucose], the “Product … of Strain C9” value in assay [1] is “++ (a saccharide-transferred product was formed in an amount of over 10% to the total sugars)”. The “Product … of Strain C11” value in assay [2] is on record as “++ (a saccharide-transferred product was formed in an amount of over 10% to the total sugars)”. The “Product … of Stain A19” value in assay [3] is given as “++ (a saccharide-transferred product was formed in an amount of over 10% to the total sugars)”. Moreover, in assay [4], the “Product … of Strain S1” value is listed as “++ (a saccharide-transferred product was formed in an amount of over 10% to the total sugars)”. Further, in assay [5], the “Product … of Strain N75” value is “++ (a saccharide-transferred product was formed in an amount of over 10% to the total sugars)”.

With `O=C[C@@H](O)[C@@H](O)[C@H](O)[C@H](O)CO` [D-Mannose, D-mannose], the “Product … of Strain C9” value in assay [1] is on record as “−”. Also, the “Product … of Strain C11” value in assay [2] was “−”. Also, the “Product … of Stain A19” value in assay [3] is “−”. Further, in assay [4], the “Product … of Strain S1” value is reported as “−”. In addition, in assay [5], the “Product … of Strain N75” value is listed as “−”.

Take `O=C(CO)[C@H](O)[C@H](O)[C@H](O)CO` [D-Psicose, D-psicose]: the “Product … of Strain C9” value in assay [1] is on record as “−”. Further, the “Product … of Strain C11” value in assay [2] is recorded as “−”. The “Product … of Stain A19” value in assay [3] is on record as “± (a saccharide-transferred product formed in an amount of less than one percent to the total sugars)”. In addition, the “Product … of Strain S1” value in assay [4] is “± (a saccharide-transferred product formed in an amount of less than one percent to the total sugars)”. Also, the “Product … of Strain N75” value in assay [5] was “−”.

With `O=C[C@H](O)[C@H](O)[C@H](O)CO` [D-Ribose, D-ribose], the “Product … of Strain C9” value in assay [1] was “−”. Moreover, in assay [2], the “Product … of Strain C11” value is recorded as “−”. In addition, the “Product … of Stain A19” value in assay [3] is recorded as “± (a saccharide-transferred product formed in an amount of less than one percent to the total sugars)”. The “Product … of Strain S1” value in assay [4] was “+ (a saccharide-transferred product was formed in an amount of over one percent but below 10% to the total sugars)”. The “Product … of Strain N75” value in assay [5] is reported as “−”.

On to `O=C[C@H](O)[C@@H](O)[C@H](O)CO` [D-Xylose, D-xylose], for which, in assay [1], the “Product … of Strain C9” value was “++ (a saccharide-transferred product was formed in an amount of over 10% to the total sugars)”. Besides, in assay [2], the “Product … of Strain C11” value is on record as “++ (a saccharide-transferred product was formed in an amount of over 10% to the total sugars)”. The “Product … of Stain A19” value in assay [3] was “++ (a saccharide-transferred product was formed in an amount of over 10% to the total sugars)”. In assay [4], the “Product … of Strain S1” value is on record as “++ (a saccharide-transferred product was formed in an amount of over 10% to the total sugars)”. The “Product … of Strain N75” value in assay [5] is “++ (a saccharide-transferred product was formed in an amount of over 10% to the total sugars)”.
